Here are results for 3 compounds from patent publication US4812456A, “1-(N-(2-alkylthio-10H-phenothiazin-10-yl)alkyl)-4-benzoylpiperidines and pharmaceutical use” (Hoechst-Roussel Pharmaceuticals Inc., priority 1987, dated 1989).

In assay [1] the test system is mice. Nature of the assay: phenyl-p-quinone writhing assay in mice (analgesic activity, modified). The assay is classed as in vivo, male mice (Charles River, CD-1). The note with it: Mus musculus, sc, tested at peak time, estimated dose at which 50% inhibition of writhing is produced, computer linear regression. The method, then: The procedure employed to determine analgesic utility is a modification of the phenyl-p-quinone writhing assay in mice, a standard assay for analgesia (Proc. Soc. Exptl. Bio. Med., 95 729 (1957)]. In the modified procedure phenyl-p-benzoquinone (Eastman, 12.5 mg) is dissolved in 5 ml of 95% ethanol and the solution is diluted to a total volume of 100 ml with distilled water. The solution is administered to the subject mice […] at a dose of 10 ml per kg of body weight. A characteristic "writh", an inward rotation of one or more feet with twisting and turning of the trunk, drawing in of the abdominal wall, lordosis and arching of the back, is produced.
A total of 28 male mice (Charles River, CD-1), weighing 18 to 30 grams, are employed for a time response. The subject animals receive food and water ad libitum. Test compounds are dissolved in distilled water, or suspended in distilled water containing one drop of a suitable surfactant, such as Tween-80.
Four groups of five animals (20 animals) are given the test compound subcutaneously at 15, 30, 45 and 60 minutes prior to administration of the phenyl-p-quinone. Four control groups of 2 animals (8 animals) receive an equal volume of the vehicle. […] The number of writhes for each animal is recorded. […]

In assay [2] the test system is mice. As to the kind of experiment: climbing mice assay (apomorphine climbing, antipsychotic activity). The assay is classed as in vivo, CK-1 male mice. The note with it: Mus musculus, ip, compound 30 minutes prior to apomorphine 1.5 mg/kg subcutaneously, climbing scores at 10, 20 and 30 minutes, linear regression, read-out: Anti-Psychotic Activity (ED50). The text has this:
The subject CK-1 male mice (23-27 grams) are group-housed under standard laboratory conditions. The mice are individually placed in wire mesh stick cages (4"×4" by 10") and are allowed one hour for adaptation and exploration of the new environment.
Mice consistently climbing before the injection of apomorphine are discarded.
With full-developed apomorphine climbing, the animals are hanging onto the cage walls, rather motionless, over longer periods of time. By contrast, climbs due to mere motor stimulation usually last only a few seconds.

As usually defined, the ED50 is the midpoint of the dose-response relation.

In the case of `CSc1ccc2c(c1)N(CCCN1CCC(C(=O)c3ccc(F)cc3)CC1)c1ccccc1S2.O=C(O)/C=C/C(=O)O` [4-(4-Fluorobenzoyl)-1-[3-(2-methylthio-10H-phenothiazin-10-yl)propyl]piperidine fumarate], the ED50 in assay [1] was 6.1 mg/kg; in assay [2], 1.4 mg/kg.
As to `CC(C)=CCN1CCC2(C)c3cc(O)ccc3CC1C2C` (stereo not shown) [Pentazocine], the ED50 in assay [1] was 1.3 mg/kg.
Turning to `CSc1ccc2c(c1)N(CCC1CCCCN1C)c1ccccc1S2` (stereo not shown) [Thioridazine], the median effective dose (ED50) in assay [2] worked out at 4.1 mg/kg.
